We go through 21 molecules from patent US20060166985A1, “Pyrrolydin-2-one derivatives as inhibitors of thrombin and factor xa” (priority 2002, published 2006).

Structures are written as SMILES. Where only a bound is given, the exact number is not on record here.

For this assay, the target named is human Thrombin (Homo sapiens, UniProt P00734). As to the kind of experiment: In vitro assay for inhibition of Thrombin (chromogenic or fluorogenic assay). It counts as biochemical. To be noted: Example 2 chromogenic assay, other Examples fluorogenic assay, read-out: thrombin inhibitory Ki. How it is done:
Thrombin inhibitory activity is measured by the ability to inhibit human α-thrombin in a chromogenic assay using N-p-tosyl-gly-pro-lys p-nitroanilide as the chromogenic substrate, or in a fluorogenic assay using Rhodamine 110, bis-(CBZ-L-valyl-L-prolyl-L-arginine amide) as the fluorogenic substrate.
The compound was diluted from a 10 mM stock solution in dimethylsulfoxide at appropriate concentrations. Assay was performed at room temperature using buffer consisting of: 50 mM HEPES, 150 mM NaCl, 5 mM CaCl2, 0.1% PEG, pH 7.4. containing human Thrombin (final conc. of 1 nM). Compound and enzyme were preincubated for 15 min prior to addition of the substrate (final conc. of 100 μM). The reaction was stopped after 30 min with the addition of soybean trypsin inhibitor or H-D-PHE-PRO-ARG-Chloromethylketone. […] To obtain IC50 values the data were analysed using ActivityBase® and XLfit®.
Compounds were diluted from a 10 mM stock solution in dimethylsulfoxide at appropriate concentrations. Assay was performed at room temperature using buffer consisting of: 50 mM HEPES, 150 mM NaCl, 5 mM CaCl2, 0.1% PEG, pH 7.4. containing human Thrombin (final conc. Of 0.2 nM). Compound and enzyme were preincubated for 15 min prior to addition of the substrate (final conc. of 10 μM). The reaction was stopped after 3 hrs with the addition of H-D-PHE-PRO-ARG-Chloromethylketone. […] To obtain IC50 values the data were analysed using ActivityBase® and XLfit®.
On to `CC[C@H](C)[C@@H](C(=O)N1CCOCC1)N1CC[C@H](NS(=O)(=O)CC(C)c2ccc(Cl)s2)C1=O` (stereo partly drawn) [Example 57, 2-(5-chloro-2-thienyl)-N-{(3S)-1-[(1S,2S)-2-methyl-1-(4-morpholinylcarbonyl)butyl]-2-oxo-3-pyrrolidinyl}-1-propanesulfonamide], for which the Ki is < 0.025 µM.

With `CC[C@H](C)[C@@H](C(=O)N1CCOCC1)N1CC[C@H](NS(=O)(=O)CC2CCc3cc(Cl)ccc32)C1=O` (stereo partly drawn) [Example 63, 1-(5-chloro-2,3-dihydro-1H-inden-1-yl)-N-{(3S)-1-[(1S,2S)-2-methyl-1-(4-morpholinylcarbonyl)butyl]-2-oxo-3-pyrrolidinyl}methanesulfonamide], the inhibition constant Ki is < 0.05 µM.

In the case of `CC[C@H](C)[C@@H](C(=O)N1CCOCC1)N1CC[C@H](NS(=O)(=O)CCc2ccc(Cl)s2)C1=O` [Example 10, 2-(5-chlorothien-2-yl)-N-{(3S)-1-[(1S,2S)-2-methyl-1-(morpholin-4-ylcarbonyl)butyl]-2-oxopyrrolidin-3-yl}ethanesulfonamide], the Ki is < 0.01 µM.

Turning to `CCOC[C@@H](C(=O)N1CCOCC1)N1CC[C@H](NS(=O)(=O)CC(C)c2ccc(Cl)s2)C1=O` (stereo partly drawn) [Example 59, 2-(5-chloro-2-thienyl)-N-{(3S)-1-[(1S)-1-[(ethyloxy)methyl]-2-(4-morpholinyl)-2-oxoethyl]-2-oxo-3-pyrrolidinyl}-1-propanesulfonamide], the Ki is < 0.025 µM.

As to `COC[C@@H](C(=O)N1CCOCC1)N1CC[C@H](NS(=O)(=O)CC2CCc3cc(Cl)ccc32)C1=O` (stereo partly drawn) [Example 62, 1-(5-chloro-2,3-dihydro-1H-inden-1-yl)-N-{(3S)-1-[(1S)-1-[(methyloxy)methyl]-2-(4-morpholinyl)-2-oxoethyl]-2-oxo-3-pyrrolidinyl}methanesulfonamide], the inhibitory constant (Ki) is < 0.2 µM.

Regarding `CC[C@H](C)[C@@H](C(=O)N1CCOCC1)N1CC[C@H](N(C)S(=O)(=O)CCc2ccc(Cl)s2)C1=O` [Example 38, 2-(5-chlorothien-2-yl)-N-methyl-N-{(3S)-1-[(1S,2S)-2-methyl-1-(morpholin-4-ylcarbonyl)butyl]-2-oxopyrrolidin-3-yl}ethanesulfonamide], the Ki was < 0.01 µM.

For `CC[C@H](C)[C@@H](C(=O)N1CCOCC1)N1CC[C@H](NS(=O)(=O)CCc2ccc(Cl)cn2)C1=O` [Example 48, 2-(5-chloro-2-pyridinyl)-N-{(3S)-1-[(1S,2S)-2-methyl-1-(4-morpholinylcarbonyl)butyl]-2-oxo-3-pyrrolidinyl}ethanesulfonamide], the Ki was < 0.025 µM.

Consider `C/C(=C\S(=O)(=O)N[C@H]1CCN([C@@H](Cc2ccccc2)C(=O)N2CCOCC2)C1=O)c1ccc(Cl)s1` [Example 14, (1E)-N-{(3S)-1-[(1S)-1-benzyl-2-morpholin-4-yl-2-oxoethyl]-2-oxopyrrolidin-3-yl}-2-(5-chlorothien-2-yl)prop-1-ene-1-sulfonamide], for which the Ki is < 0.01 µM.

Take `C[C@@H](C(=O)N1CCOCC1)N1CC[C@H](NS(=O)(=O)CCc2ccc(Cl)cn2)C1=O` [Example 47, 2-(5-chloro-2-pyridinyl)-N-{(3S)-1-[(1S)-1-methyl-2-(4-morpholinyl)-2-oxoethyl]-2-oxo-3-pyrrolidinyl}ethanesulfonamide]: the Ki was < 0.1 µM.

As for `CC[C@H](C)[C@@H](C(=O)N1CCOCC1)N1CC[C@H](NS(=O)(=O)CC(O)c2ccc(Cl)cc2)C1=O` (stereo partly drawn) [Example 53, 2-(4-chlorophenyl)-2-hydroxy-N-{(3S)-1-[(1S,2S)-2-methyl-1-(4-morpholinylcarbonyl)butyl]-2-oxo-3-pyrrolidinyl}ethanesulfonamide], the inhibitory constant (Ki) is < 0.1 µM.

Turning to `COC[C@@H](C(=O)N1CCOCC1)N1CC[C@H](NS(=O)(=O)C[C@@H]2CCc3cc(Cl)ccc32)C1=O` [Example 68, 1-[(1R)-5-chloro-2,3-dihydro-1H-inden-1-yl]-N-{(3S)-1-[(1S)-1-[(methyloxy)methyl]-2-(4-morpholinyl)-2-oxoethyl]-2-oxo-3-pyrrolidinyl}methanesulfonamide], the Ki is < 0.05 µM.

As to `COC(=O)CN([C@H]1CCN([C@@H](C)C(=O)N2CCOCC2)C1=O)S(=O)(=O)CCc1ccc(Cl)s1` [Example 35, Methyl N-{[2-(5-chlorothien-2-yl)ethyl]sulfonyl}-N-{(3S)-1-[(1S)-1-methyl-2-morpholin-4-yl-2-oxoethyl]-2-oxopyrrolidin-3-yl}glycinate], the Ki is < 0.025 µM.

`O=C([C@H](c1cccs1)N1CC[C@H](NS(=O)(=O)CCc2ccc(Cl)s2)C1=O)N1CCOCC1` [Example 73, 2-(5-chloro-2-thienyl)-N-{(3S)-1-[(1R)-2-(4-morpholinyl)-2-oxo-1-(2-thienyl)ethyl]-2-oxo-3-pyrrolidinyl}ethanesulfonamide]: the inhibition constant (Ki) is < 0.05 µM.

Consider `COC[C@@H](C(=O)N1CCOCC1)N1CC[C@H](NS(=O)(=O)CCc2ccc(Cl)s2)C1=O` [Example 15, 2-(5-chlorothien-2-yl)-N-{(3S)-1-[(1S)-1-(methoxymethyl)-2-morpholin-4-yl-2-oxoethyl]-2-oxopyrrolidin-3-yl}ethanesulfonamide], for which the Ki is < 0.05 µM.

Regarding `C[C@@H](C(=O)N1CCOCC1)N1CC[C@H](NS(=O)(=O)/C=C(\F)c2ccc(Cl)cc2)C1=O` [Example 28, (Z)-2-(4-chlorophenyl)-2-fluoro-N-{(3S)-1-[(1S)-1-methyl-2-morpholin-4-yl-2-oxoethyl]-2-oxopyrrolidin-3-yl}ethenesulfonamide], the inhibition constant Ki was < 0.025 µM.

On to `O=C([C@H](c1ccccc1)N1CC[C@H](NS(=O)(=O)CCc2ccc(Cl)s2)C1=O)N1CCOCC1` [Example 69, 2-(5-chloro-2-thienyl)-N-{(3S)-1-[(1S)-2-(4-morpholinyl)-2-oxo-1-phenylethyl]-2-oxo-3-pyrrolidinyl}ethanesulfonamide], for which the Ki was < 0.1 µM.

Consider `C[C@@H](C(=O)N1CCOCC1)N1CC[C@H](NS(=O)(=O)CC2COc3cc(Cl)ccc32)C1=O` (stereo partly drawn) [Example 64, 1-(6-chloro-2,3-dihydro-1-benzofuran-3-yl)-N-{(3S)-1-[(1S)-1-methyl-2-(4-morpholinyl)-2-oxoethyl]-2-oxo-3-pyrrolidinyl}methanesulfonamide], for which the Ki is < 0.1 µM.

As to `CC[C@@H](C(=O)N1CCOCC1)N1CC[C@H](NS(=O)(=O)/C=C(\C)c2ccc(Cl)s2)C1=O` [Example 7, (1E)-2-(5-chlorothien-2-yl)-N-{(3S)-1-[(1S)-1-(morpholin-4-ylcarbonyl)propyl]-2-oxopyrrolidin-3-yl}prop-1-ene-1-sulfonamide], the inhibitory constant (Ki) is < 0.01 µM.

With `COC[C@@H](C(=O)N1CCOCC1)N1CC[C@H](NS(=O)(=O)CC(=O)c2ccc(Cl)cc2)C1=O` [Example 52], the Ki was < 0.05 µM.

Take `CCOC[C@@H](C(=O)N1CCOCC1)N1CC[C@H](NS(=O)(=O)CCc2ccc(Cl)cc2)C1=O` [Example 86, 2-(4-chlorophenyl)-N-((3S)-1-[(1S)-1-[(ethyloxy)methyl]-2-(4-morpholinyl)-2-oxoethyl]-2-oxo-3-pyrrolidinyl}ethanesulfonamide]: the inhibition constant (Ki) was < 0.025 µM.

On to `CCOC[C@@H](C(=O)N1CCOCC1)N1CC[C@H](NS(=O)(=O)/C=C(\C)c2ccc(Cl)s2)C1=O` [Example 87, (1E)-2-(5-chloro-2-thienyl)-N-{(3S)-1-[(1S)-1-[(ethyloxy)methyl]-2-(4-morpholinyl)-2-oxoethyl]-2-oxo-3-pyrrolidinyl}-1-propene-1-sulfonamide], for which the Ki was < 0.01 µM.
